assay: Bronchodialatory activity in guinea pig trachea assessed as reduction of histamine-induced contracture; type: functional, tissue-based, Cavia porcellus

| IC50 [µM] | SMILES |
| --- | --- |
| 23.4 | CCN1CC[C@@]2(OC)OC(N)=C(C#N)[C@@H](c3ccccc3)[C@@H]2C1 |
| 10.5 | CO[C@@]12CCN(C)C[C@H]1[C@H](c1ccc(Cl)cc1)C(C#N)=C(N)O2 |
| 14.9 | CCN1CC[C@@]2(OC)OC(N)=C(C#N)[C@@H](c3ccc(Cl)cc3)[C@@H]2C1 |
| 19.4 | CO[C@@]12CCN(C)C[C@H]1[C@H](c1ccc(F)cc1)C(C#N)=C(N)O2 |
| 13.2 | CO[C@@]12CCN(C)C[C@H]1[C@H](c1ccc(C)cc1)C(C#N)=C(N)O2 |
| 23.1 | COc1ccc([C@@H]2C(C#N)=C(N)O[C@]3(OC)CCN(C)C[C@@H]23)cc1 |
| 25.5 | CCN1CC[C@@]2(OC)OC(N)=C(C#N)[C@@H](c3ccc(OC)cc3)[C@@H]2C1 |
| 19 | CO[C@@]12CCN(C)C[C@H]1[C@H](c1ccc(N3CCCCC3)cc1)C(C#N)=C(N)O2 |
| 13.8 | CCN1CC[C@@]2(OC)OC(N)=C(C#N)[C@@H](c3ccc(N4CCCCC4)cc3)[C@@H]2C1 |
| 20.2 | CO[C@@]12CCN(C)C[C@H]1[C@H](c1ccc(N3CCOCC3)cc1)C(C#N)=C(N)O2 |
| 28.7 | CCN1CC[C@@]2(OC)OC(N)=C(C#N)[C@@H](c3ccc(N4CCOCC4)cc3)[C@@H]2C1 |
| 19.8 | CO[C@@]12CCN(C)C[C@H]1[C@H](c1ccccc1)C(C#N)=C(N)O2 |
| 20.7 | CCCN1CC[C@@]2(OC)OC(N)=C(C#N)[C@@H](c3ccccc3)[C@@H]2C1 |
| 22.6 | CO[C@@]12CCN(Cc3ccccc3)C[C@H]1[C@H](c1ccccc1)C(C#N)=C(N)O2 |
| 24.2 | CO[C@@]12CCN(C)C[C@H]1[C@H](c1ccc3ccccc3c1)C(C#N)=C(N)O2 |
| 28.3 | CCN1CC[C@@]2(OC)OC(N)=C(C#N)[C@@H](c3ccc4ccccc4c3)[C@@H]2C1 |
| 37.1 | CCCN1CC[C@@]2(OC)OC(N)=C(C#N)[C@@H](c3ccc4ccccc4c3)[C@@H]2C1 |
| 23.4 | CO[C@@]12CCN(Cc3ccccc3)C[C@H]1[C@H](c1ccc3ccccc3c1)C(C#N)=C(N)O2 |
| 7.9 | CO[C@@]12CCN(C)C[C@H]1[C@H](c1ccc(Br)cc1)C(C#N)=C(N)O2 |
| 13.2 | CCN1CC[C@@]2(OC)OC(N)=C(C#N)[C@@H](c3ccc(Br)cc3)[C@@H]2C1 |
| 19.4 | CCCN1CC[C@@]2(OC)OC(N)=C(C#N)[C@@H](c3ccc(Br)cc3)[C@@H]2C1 |

| IC50 [µM] | SMILES |
| --- | --- |
| 30.3 | CCCN1CC[C@@]2(OC)OC(N)=C(C#N)[C@@H](c3ccc(Cl)cc3)[C@@H]2C1 |
| 18.5 | CO[C@@]12CCN(Cc3ccccc3)C[C@H]1[C@H](c1ccc(Cl)cc1)C(C#N)=C(N)O2 |
| 14.9 | CO[C@@]12CCN(C)C[C@H]1[C@H](c1ccc(Cl)cc1Cl)C(C#N)=C(N)O2 |
| 27.1 | CCN1CC[C@@]2(OC)OC(N)=C(C#N)[C@@H](c3ccc(Cl)cc3Cl)[C@@H]2C1 |
| 35.5 | CCCN1CC[C@@]2(OC)OC(N)=C(C#N)[C@@H](c3ccc(Cl)cc3Cl)[C@@H]2C1 |
| 18.3 | CO[C@@]12CCN(Cc3ccccc3)C[C@H]1[C@H](c1ccc(Cl)cc1Cl)C(C#N)=C(N)O2 |
| 29.6 | CCCN1CC[C@@]2(OC)OC(N)=C(C#N)[C@@H](c3ccc(F)cc3)[C@@H]2C1 |
| 17.2 | CO[C@@]12CCN(Cc3ccccc3)C[C@H]1[C@H](c1ccc(F)cc1)C(C#N)=C(N)O2 |
| 16.8 | CCN1CC[C@@]2(OC)OC(N)=C(C#N)[C@@H](c3ccc(C)cc3)[C@@H]2C1 |
| 21 | CCCN1CC[C@@]2(OC)OC(N)=C(C#N)[C@@H](c3ccc(C)cc3)[C@@H]2C1 |
| 27.1 | CO[C@@]12CCN(Cc3ccccc3)C[C@H]1[C@H](c1ccc(C)cc1)C(C#N)=C(N)O2 |
| 21.3 | CCCN1CC[C@@]2(OC)OC(N)=C(C#N)[C@@H](c3ccc(OC)cc3)[C@@H]2C1 |
| 23.1 | COc1ccc([C@@H]2C(C#N)=C(N)O[C@]3(OC)CCN(Cc4ccccc4)C[C@@H]23)cc1 |
| 19.1 | COc1ccc([C@@H]2C(C#N)=C(N)O[C@]3(OC)CCN(C)C[C@@H]23)cc1OC |
| 23.2 | CCN1CC[C@@]2(OC)OC(N)=C(C#N)[C@@H](c3ccc(OC)c(OC)c3)[C@@H]2C1 |
| 24.7 | CCCN1CC[C@@]2(OC)OC(N)=C(C#N)[C@@H](c3ccc(OC)c(OC)c3)[C@@H]2C1 |
| 21.9 | COc1ccc([C@@H]2C(C#N)=C(N)O[C@]3(OC)CCN(Cc4ccccc4)C[C@@H]23)cc1OC |
| 25.4 | CO[C@@]12CCN(Cc3ccccc3)C[C@H]1[C@H](c1ccc(N3CCOCC3)cc1)C(C#N)=C(N)O2 |
| 13.8 | CO[C@@]12CCN(C)C[C@H]1[C@H](c1ccc(-c3cccs3)cc1)C(C#N)=C(N)O2 |
| 19.8 | CCN1CC[C@@]2(OC)OC(N)=C(C#N)[C@@H](c3ccc(-c4cccs4)cc3)[C@@H]2C1 |

| SMILES | IC50 [µM] |
| --- | --- |
| Cn1c(=O)c2nc[nH]c2n(C)c1=O [THEOPHYLLINE] | 19.9 |

Reference: ChEMBL document CHEMBL3351662, “Synthesis, bioassay, and QSAR study of bronchodilatory active 4H-pyrano[3,2-c]pyridine-3-carbonitriles” (Eur J Med Chem, 2015)
